Assay results from patent publication US20240279220A1, “INDOLE COMPOUNDS AND METHODS OF USE” (Genzyme Corporation, priority 2021, published 2024).

These compounds were tested on NBD1/3D (assay: Aggregation analysis using differential static light scattering (DSLS), NBD1 thermal stability). Details: ΔTagg versus DMSO control; compound at 100 μM.
Format: binding, Human
How it was run: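 Purified NBD1 at 0.2 mg/ml in S200 buffer (pH 7.6, 2 mM ATP, 5 mM MgCl2, 1% glycerol) was heated with compound at 1 °C/min to 70 °C. Tagg taken from the light-scattering curve inflection point; ΔTagg = compound Tagg minus mean DMSO control Tagg.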
For `Cc1c(Oc2ccc(F)c(-c3ncc(C(C)(O)c4cccc(CCC(=O)O)c4)[nH]3)c2)c(F)cc2[nH]ccc12` (single isomer, unassigned) [Example 215A, 3-(3-(1-(2-(2-Fluoro-5-((6-fluoro-4-methyl-1H-indol-5-yl)oxy)phenyl)-1H-imidazol-5-yl)-1-hydroxyethyl)phenyl)propanoic acid], the “DSLS NBD1/3D Human Stability delta-T (° C.) @ 100 (μM)” value (from here on “DSLS NBD1/3D Human Stability delta-T”) was “B (B: 5-10° C.)”. `O=C(O)CCc1cccc(Cn2ccc(-c3cccc(Oc4ccc5[nH]ccc5c4CO)c3)n2)c1` [Example 10, 3-(3-((3-(3-((4-(Hydroxymethyl)-1H-indol-5-yl)oxy)phenyl)-1H-pyrazol-1-yl)methyl)phenyl)propanoic acid] was tested, and the “DSLS NBD1/3D Human Stability delta-T” value was “B (B: 5-10° C.)”. With `Cc1c(Oc2cccc(-c3ncc(C(C)(O)c4cccc(C5CC5C(=O)O)c4)[nH]3)c2)ccc2[nH]ccc12` (stereo not shown) [Example 222, 2-(3-(1-hydroxy-1-(2-(3-((4-methyl-1H-indol-5-yl)oxy)phenyl)-1H-imidazol-5-yl)ethyl)phenyl)cyclopropane-1-carboxylic acid] the “DSLS NBD1/3D Human Stability delta-T” value was “B (B: 5-10° C.)”. In the case of `Cc1c(Oc2ccc(F)c(-c3nc(C4(c5cccc(CCC(=O)O)c5)CCCCC4)c[nH]3)c2)c(F)cc2[nH]ccc12` [Example 147, 3-(3-(1-(2-(2-fluoro-5-((6-fluoro-4-methyl-1H-indol-5-yl)oxy)phenyl)-1H-imidazol-4-yl)cyclohexyl)phenyl)propanoic acid], the “DSLS NBD1/3D Human Stability delta-T” value is reported as “B (B: 5-10° C.)”. In the case of `CC(O)(c1cccc(CCC(=O)O)c1)c1csc(-c2cccc(Oc3c(F)cc4[nH]ccc4c3S(C)(=O)=O)c2)n1` (stereo not shown) [Example 37, 3-(3-(1-(2-(3-((6-Fluoro-4-(methylsulfonyl)-1H-indol-5-yl)oxy)phenyl)thiazol-4-yl)-1-hydroxyethyl)phenyl)propanoic acid], the “DSLS NBD1/3D Human Stability delta-T” value is reported as “B (B: 5-10° C.)”. For `[2H]C([2H])([2H])C(C#N)(c1cccc(CCC(=O)O)c1)c1cnc(-c2cc(Oc3c(F)cc4[nH]ccc4c3F)ccc2F)[nH]1` (stereo not shown) [Example 60, 3-(3-(1-cyano-1-(2-(5-((4,6-difluoro-1H-indol-5-yl)oxy)-2-fluorophenyl)-1H-imidazol-5-yl)ethyl-2,2,2-d3)phenyl)propanoic acid], the “DSLS NBD1/3D Human Stability delta-T” value was “B (B: 5-10° C.)”. For `Cc1c(Oc2ccc(F)c(-c3nnc(Cc4cccc5c4CC(C(=O)O)C5)[nH]3)c2)c(F)cc2[nH]ccc12` (stereo not shown) [Example 244, 4-((5-(2-Fluoro-5-((6-fluoro-4-methyl-1H-indol-5-yl)oxy)phenyl)-4H-1,2,4-triazol-3-yl)methyl)-2,3-dihydro-1H-indene-2-carboxylic acid], the “DSLS NBD1/3D Human Stability delta-T” value was “C (C: ≤5° C.)”. For `CS(=O)(=O)c1c(Oc2ccc(F)c(-c3ncc(C4(c5cccc(CCC(=O)O)c5)CC(F)(F)C4)[nH]3)c2)c(F)cc2[nH]ccc12` [Example 78, 3-(3-(3,3-Difluoro-1-(2-(2-fluoro-5-((6-fluoro-4-(methylsulfonyl)-1H-indol-5-yl)oxy)phenyl)-1H-imidazol-5-yl)cyclobutyl)phenyl)propanoic acid], the “DSLS NBD1/3D Human Stability delta-T” value was “A (A: T ≥ 10° C.)”. In the case of `Cc1c(Oc2cccc(-c3ccn(Cc4cccc(CCCO)c4)n3)c2)ccc2[nH]ccc12` [Example 6, 3-(3-((3-(3-((4-Methyl-1H-indol-5-yl)oxy)phenyl)-1H-pyrazol-1-yl)methyl)phenyl)propan-1-ol], the “DSLS NBD1/3D Human Stability delta-T” value is reported as “C (C: ≤5° C.)”. For `CC(C#N)(c1cccc(CCC(=O)O)c1)c1cnc(-c2cc(Oc3c(F)c(F)c4[nH]ccc4c3S(C)(=O)=O)ccc2F)[nH]1` (stereo not shown) [Example 49, 3-(3-(1-Cyano-1-(2-(5-((6,7-difluoro-4-(methylsulfonyl)-1H-indol-5-yl)oxy)-2-fluorophenyl)-1H-imidazol-5-yl)ethyl)phenyl)propanoic acid], the “DSLS NBD1/3D Human Stability delta-T” value was “A (A: T ≥ 10° C.)”.
